Test results from patent publication US20040204466A1, “Treatment of bronchial asthma using 5-HT3 receptor antagonists” (Orchid Chemicals and Pharmaceuticals Ltd., priority 2003, published 2004).

How the values were obtained:
Format in all cases: in vivo, female Balb/c mice
[1] = system: ovalbumin sensitized and challenged mice; assay: Airway hyperresponsiveness to methacholine (Penh, barometric plethysmography); settings: 24 hours after antigen challenge, increasing doses of methacholine, FIGS. 5 and 6
Description: Four to five-week old female Balb/c mice (Harlan Laboratories, Indianapolis, Ind.) were housed according to the NIH guidelines and were allowed constant access to food and water. Intraperitoneal injections of 6 μg of grade V chicken egg ovalbumin (Ova; Sigma-Aldrich, St. Louis, Mo.) adsorbed to 2.25 mg Imject Alum (Pierce, Rockford, Ill.) and dissolved in PBS. Aerosol sensitization with 0.2% ovalbumin (Ova) for 10 minutes using Ultra-Neb 90 nebulizer (DeVilbiss, Somerset, Pa.). Twenty-four hours after antigen challenge, the mice were challenged with increasing does of methacholine and Penh values were recorded by barometric plethysmography.

[2] = system: ovalbumin sensitized and challenged mice; assay: Ova-specific airway resistance of early and late allergic response to antigen challenge; settings: gavage 120 μg/kg twice a day for 10 days
Description: Four to five-week old female Balb/c mice (Harlan Laboratories, Indianapolis, Ind.) were housed according to the NIH guidelines and were allowed constant access to food and water. Intraperitoneal injections of 6 μg of grade V chicken egg ovalbumin (Ova; Sigma-Aldrich, St. Louis, Mo.) adsorbed to 2.25 mg Imject Alum (Pierce, Rockford, Ill.) and dissolved in PBS. Aerosol sensitization with 0.2% ovalbumin (Ova) for 10 minutes using Ultra-Neb 90 nebulizer (DeVilbiss, Somerset, Pa.). Ondansetron was administered by gavage in the dose of 120 μg/kg twice a day for 10 days.

[3] = system: ovalbumin sensitized and challenged mice; assay: Serum IgE levels; settings: gavage 120 μg/kg twice a day for 10 days; values increased, albeit insignificantly
[4] = system: ovalbumin sensitized and challenged mice; assay: Eosinophils in BAL fluid following methacholine challenge; settings: immediately following methacholine challenge; FIGS. 7 and 8

Structure (SMILES): Cc1nccn1CC1CCc2c(c3ccccc3n2C)C1=O (centres unmarked) [Ondansetron]
- AHR to methacholine [1]: completely suppressed
- Ova-specific airway resistance of the early allergic response (EAR) ([2]; FIG. 1): without EAR protection
- Ova-specific airway resistance of the late allergic response (LAR) ([2]; P <0.001, FIG. 2): significant protection during the LAR
- mean serum IgE concentrations [3]: unaffected
- numbers of eosinophil in BAL [4]: significantly descried numbers of eosinophil
